Experiments:
[1] = test system: platelet aggregation; assay: Platelet aggregation by whole blood aggregometry (WBA) or light transmission aggregometry (LTA); type: cell-based, human; details: titration of CCD
[2] = test system: citrated plasma; assay: T2MR PT clotting time in samples from donors on Coumadin therapy; type: in vivo, human
Protocol: All samples were sourced from the coagulation laboratory at a local hospital. Lab protocol was to collect discarded citrated blood samples (venous draw, 1 mL minimum) from patients on Coumadin therapy with both normal and abnormal PT values. Citrated blood samples were stored at RT and within 4-5 hours of the draw time samples were spun down at 1500×g for 15 min to prepare plasma. Plasma samples were stored frozen at −70° C.
For citrated plasma, a tissue factor reagent was prepared by reconstituting the lyophilized Dade® Innovin® (tissue factor) reagent. Citrated plasma (13 μL) was mixed with 27 μL of tissue factor reagent. All reagents and disposables were adequately pre-heated. T2 values were collected with a 1 second dwell time and used to collect the T2 values as a function of time. The T2 vs. time data were collected for 120 successive measurements and fit with a five-parameter logistic fit to calculate the EC50, from which the clotting time was derived. A method comparison against the Stago ST4 system and a precision study was completed with 22 samples from normal donors not on anti-coagulant medications and 50 samples from donors on Coumadin. […] INR (international normalized ratio, a normalized PT value) values were calculated from a pool of normal healthy donors. […] This corresponds to a clotting time value that is prolonged compared to standard therapeutic ranges.

[3] = test system: plasma; assay: STAGO plasma prothrombin time (PT); type: biochemical, human; details: rivaroxaban spiked samples, three donors
Protocol: Samples from three donors were provided. Rivaroxaban spiked citrated whole blood samples were used to generate a range of clotting time measurements. An extrinsic pathway activator, such as tissue factor, was added. The T2MR clotting time (CT) range used was 32-259 seconds, and the STAGO plasma prothrombin time (PT) range was 11-47 seconds. Five replicate T2MR measurements were taken for each clotting time.

[4] = test system: citrated whole blood; assay: T2Ex T2MR clotting time, extrinsic pathway activator (tissue factor); type: cell-based, human
Excerpt: In one embodiment a panel is used with an extrinsic activator such as tissue factor. The clotting time T2MR measurement for normal blood can be 30-40 seconds. It can also be 8-12 seconds, 10-20 seconds, 10-40 seconds, 30-40 seconds, 30-50 seconds, 40-60 seconds, 50-60 seconds or 20-60 seconds. The international normalized ratio for normal blood can then be 0.8-1.2, or 0.87-1.13. The abnormal range of T2MR measurement of clotting time is above or below the normal range. The total range easily measured is 8-300 seconds though a measurement up to or beyond 1000 seconds could be performed with modified acquisition. If aprotinin is added in addition to tissue factor, in normal blood the clotting time is often between 27.9 and 41.6 seconds.
The general extrinsic activator protocol was as follows (T2Ex panel): an extrinsic activator solution was prepared by mixing tissue factor reagent with CaCl2. […]
The T2Ex or the T2In protocols were also used with the addition of aprotinin (T2Ex-A and T2In-A) respectively. […] The sample was mixed and read in the T2reader. […]
Rivaroxaban was spiked into citrated blood from normal donors at increasing levels. Aliquots of spiked blood were activated with tissue factor activator solution and clot times determined by T2MR. […]

[5] = test system: citrated whole blood; assay: T2In T2MR clotting time, intrinsic pathway activator (ellagic acid); type: cell-based, human
Excerpt: In another embodiment a coagulopathy panel is used with an intrinsic activator such as ellagic acid. The common range of clotting time is often between 100 and 120 seconds for normal blood. However, it can be 22-30 seconds, 30-44 seconds, 44-60 seconds, 60-80 seconds, 80-100 seconds, up to 2 times to 4 times the range of normal T2MR clotting times for the extrinsic activator. The abnormal clotting time ranges are above or below the normal range. The total range easily measured is 8-300 seconds though a measurement up to or beyond 1000 seconds could be performed with modified acquisition. If aprotinin is added in addition to intrinsic activator, clotting times can often be from 110.9-151.0 seconds in normal blood.
The general intrinsic activator protocol is as follows (T2In panel): an intrinsic activator solution was prepared by mixing tissue factor reagent with CaCl2. To 36.7 μL of citrated whole blood (warmed to approximately 37° C. for 3 minutes and mixed) was added 5 μL of the intrinsic activator solution (also been warmed to approximately 37° C. for one minute). The resulting solution was mixed and subjected to T2 measurements for 50 minutes. For a given sample, a clotting time measurement was typically obtained within 5 minutes. Some examples of activators are tissue factor with phospholipids and ellagic acid with phospholipid. The reagents were placed in a tube that was subsequently placed in the magnetic field. Citrated whole blood was added and mixed. The blood was diluted 50%. The T2MR of the sample was measured for 30 minutes.
The T2Ex or the T2In protocols were also used with the addition of aprotinin (T2Ex-A and T2In-A) respectively. For the intrinsic pathway measurement (T2In), intrinsic activator solution was prepared by mixing ellagic acid stock and CaCl2. For the intrinsic pathway measurement that includes aprotinin (T2In-A), add 41.7 μL of a 1 mg/mL stock of aprotinin to 1 mL intrinsic activator solution. 36.7 μL citrated whole blood that had been warmed to approximately 37° C. for three minutes was added and mixed. […] The sample was mixed and read in the T2reader. […]

[6] = test system: plasma; assay: STAGO aPTT; type: biochemical, human; details: rivaroxaban spiked samples, six donors
Protocol: Citrated whole blood samples from six donors were provided and spiked with rivaroxaban to generate a range of clotting times. An activator of the intrinsic coagulation pathway, (e.g. ellagic acid), was added. T2MR clotting time range was between 73-202 seconds, and the STAGO aPTT range was between 29-86 seconds. Five replicate T2MR measurements were taken for each clotting time. The specification desired was between 0.7-5% CV with 100-200 seconds of clotting time and a detection range of 60-450 seconds.

[7] = test system: citrated whole blood; assay: T2In platelet activity and fibrinolysis measurement with tPA or aprotinin; type: cell-based, human; details: ellagic acid with CaCl2; tPA 0, 2 or 4 nM or aprotinin control; 65 min
Protocol: The T2Ex or the T2In protocols were also used with the addition of aprotinin (T2Ex-A and T2In-A) respectively. For the intrinsic pathway measurement (T2In), intrinsic activator solution was prepared by mixing ellagic acid stock and CaCl2. For the intrinsic pathway measurement that includes aprotinin (T2In-A), add 41.7 μL of a 1 mg/mL stock of aprotinin to 1 mL intrinsic activator solution. 36.7 μL citrated whole blood that had been warmed to approximately 37° C. for three minutes was added and mixed. 5 μL of intrinsic activator solution with aprotinin that had been warmed to approximately 37° C. for one minute was added. The sample was mixed and read in the T2reader. The clotting time measurement was obtained after 5 minutes and then the platelet activity and fibrinolysis measurements were obtained over the following 60 minutes. In a separate assay the effects of the amounts of activator were tested.
Platelet activity and fibrinolysis measurements for the 3 donor samples in the T2In assay are shown in FIG. 15a-15b. tPA levels of 0 nM, 2 nM or 4 nM were added to citrated whole blood. Blood samples (36.7 μL) were activated by addition of 5 μL ellagic acid solution with CaCl2. T2MR data was collected for 65 min. The addition of tPA cleaves the fibrin mesh of the clot and results in clot dissolution over time. This is detected by T2MR by the change in T2 value of the serum peak (third phase). […]

[8] = test system: reconstituted blood samples; assay: T2MR % deltaT2 fibrinogen measurement, reconstituted blood activated with ellagic acid; type: cell-based, human
Excerpt: The T2MR based hemostasis assays described herein can be used to discriminate normal from abnormal patient samples for fibrinogen measurements using either an extrinsic or intrinsic pathway activation. […] Citrated whole blood from normal donors was centrifuged and […] removed. Packed red blood cells were washed with fibrinogen depleted plasma. Fibrinogen depleted plasma was spiked with known amounts of fibrinogen; these spiked plasmas were used to reconstitute washed red blood cells to produce blood samples with varying fibrinogen levels. Blood samples were activated with ellagic acid activator solution and clot time and % deltaT2 were measured. Fibrinogen levels in each sample were determined by the Clauss method. […] Low fibrinogen (120 mg/dL) gave an average % deltaT2 of 4, normal level fibrinogen (343 mg/dL) gave an average % deltaT2 of 8.3 and high fibrinogen (583 mg/dL) gave an average % deltaT2 of 10.7.

C=C1[C@@H](C)[C@H]2[C@H](Cc3ccccc3)NC(=O)[C@]23[C@H](OC(C)=O)/C=C/[C@@](C)(O)C(=O)[C@@H](C)C/C=C/[C@H]3[C@@H]1O [CCD, cytochalasin D]
effect on platelet aggregation [1]: no reproducible effect

CC(=O)CC(c1ccccc1)c1c(O)c2ccccc2oc1=O (centres unmarked) [Coumadin, warfarin]
clotting times versus normal donors not on therapy ([2]; citrated plasma, citrated blood and fresh whole blood): prolonged clotting times | INR ([2]; patient on Coumadin, hypocoagulable state): 5.3 | T2MR clotting time ([2]; patient on Coumadin, hypocoagulable state, citrated plasma, tissue factor reagent): 51.3 s | INR ([2]; patient undergoing Coumadin therapy but hypercoagulable): 0.8 | T2MR clotting time ([2]; patient undergoing Coumadin therapy but hypercoagulable, citrated plasma): 8.4 s

O=C(NC[C@H]1CN(c2ccc(N3CCOCC3=O)cc2)C(=O)O1)c1ccc(Cl)s1 [rivaroxaban]
STAGO plasma prothrombin time (PT) range [3]: 11 to 47 s | extension of clot times ([4]; 800 ng/mL spiked into citrated blood from normal donors, tissue factor activator solution): approximately 80% | T2MR clotting time (CT) range ([4]; rivaroxaban spiked citrated whole blood, three donors, range over spiked samples (Example 12)): 32 to 259 s | T2MR clotting time range ([5]; rivaroxaban spiked citrated whole blood, six donors): 73 to 202 s | STAGO aPTT range [6]: 29 to 86 s

aprotinin
change in T2 value of the serum peak (third phase) [7]: no detected change | clotting time curves (% deltaT2) ([5]; T2In, 3 donors, different tPA concentrations, with or without aprotinin): appear to overlay | clotting times ([5]; aprotinin added in addition to intrinsic activator, normal blood): 110.9 to 151.0 s

fibrinogen
average % deltaT2 ([8]; high fibrinogen 583 mg/dL): 10.7 | average % deltaT2 ([8]; low fibrinogen 120 mg/dL): 4 | average % deltaT2 ([8]; normal level fibrinogen 343 mg/dL): 8.3
